Experimental data: US9828368B2 (MERCK SHARP & DOHME CORP., priority 2013, dated 2017)

Key:
hOX1R = hOX1R (Homo sapiens, UniProt O43613); test: FLIPR Ca2+ flux assay, hOX1R; format: cell-based; settings: CHO cells; agonist 70 pM Ala-6,12 orexin-A; rat orexin-1 receptor; read-out: hOX1R FLIPR IC50
human orexin-2 receptor = human orexin-2 receptor (Homo sapiens (Human), UniProt O43614); test: FLIPR Ca2+ flux assay, hOX2R; format: cell-based; settings: CHO cells expressing human orexin-2 receptor; agonist 70 pM Ala-6,12 orexin-A
Chain of human orexin-2 receptor (O43614 whole entry): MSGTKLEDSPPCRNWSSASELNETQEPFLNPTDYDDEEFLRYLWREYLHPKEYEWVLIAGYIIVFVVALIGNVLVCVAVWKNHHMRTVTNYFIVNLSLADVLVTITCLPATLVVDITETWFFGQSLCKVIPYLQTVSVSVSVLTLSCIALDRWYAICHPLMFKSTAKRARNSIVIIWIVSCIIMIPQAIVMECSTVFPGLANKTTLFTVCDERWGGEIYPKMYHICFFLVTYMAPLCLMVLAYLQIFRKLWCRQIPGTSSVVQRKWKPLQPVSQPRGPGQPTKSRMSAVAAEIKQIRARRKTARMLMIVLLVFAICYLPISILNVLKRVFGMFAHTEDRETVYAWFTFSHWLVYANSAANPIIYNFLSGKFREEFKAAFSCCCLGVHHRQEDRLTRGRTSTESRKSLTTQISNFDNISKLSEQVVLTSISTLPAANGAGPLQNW

Compound	IC50 (hOX1R)	IC50 (human orexin-2 receptor)
C[C@@H]1CC[C@@H](c2nc(CCF)c(-c3ccccc3)o2)CN1C(=O)c1ccccc1-n1nccn1 [Example 71, (2-(2H-1,2,3-triazol-2-yl)phenyl)((2R,5R)-5-(4-(2-fluoroethyl)-5-phenyloxazol-2-yl)-2-methylpiperidin-1-yl)methanone]	70 nM	61 nM
Cc1ccc(-n2nccn2)c(C(=O)N2C[C@H](c3ncc(C)o3)CC[C@H]2C)c1 [Example 72, (5-Methyl-2-(2H-1,2,3-triazol-2-yl)phenyl)((2R,5R)-2-methyl-5-(5-methyloxazol-2-yl)piperidin-1-yl)methanone]	4540 nM	433 nM
C[C@@H]1CC[C@@H](c2ncc(C(C)(C)C)o2)CN1C(=O)c1ccccc1-n1nccn1 [Example 73, (2-(2H-1,2,3-Triazol-2-yl)phenyl)((2R,5R)-5-(5-(tert-butyl)oxazol-2-yl)-2-methylpiperidin-1-yl)methanone]	151 nM	30 nM
C[C@@H]1CC[C@@H](c2ncc(-c3ccccc3)o2)CN1C(=O)c1ccccc1-n1nccn1 [Example 74, (2-(2H-1,2,3-Triazol-2-yl)phenyl)((2R, 5R)-2-methyl-5-(5-phenyloxazol-2-yl)piperidin-1-yl)methanone]	55 nM	111 nM
C[C@@H]1CC[C@@H](c2ncc(C3CCC3)o2)CN1C(=O)c1ccccc1-n1nccn1 [Example 75, (2-(2H-1,2,3-Triazol-2-yl)phenyl)((2R, 5R)-5-(5-cyclobutyloxazol-2-yl)-2-methylpiperidin-1-yl)methanone]	59 nM	16 nM
C[C@@H]1CC[C@@H](c2ncc(C3CC3)o2)CN1C(=O)c1ccccc1-n1nccn1 [Example 76, (2-(2H-1,2,3-Triazol-2-yl)phenyl)((2R, 5R)-5-(5-cyclopropyloxazol-2-yl)-2-methylpiperidin-1-yl)methanone]	973 nM	33 nM
C[C@@H]1CC[C@@H](c2nc(-c3ccccc3)c(-c3ccccc3)o2)CN1C(=O)c1ccccc1-n1nccn1 [Example 77, (2-(2H-1,2,3-Triazol-2-yl)phenyl)((2R,5R)-5-(4,5-diphenyloxazol-2-yl)-2-methylpiperidin-1-yl)methanone]	451 nM	515 nM
((2R,5R)-5-(4-(2-Hydroxypropan-2-yl)-5- methyloxazol-2-yl)-2-methylpiperidin-1-yl)(2- methoxyphenyl)methanone [Example 30]	> 10000 nM	29.4 nM
